Literature values in patent US20170312254A1, “Low Dose Pharmaceutical Composition” (Cipla Limited, priority 2010, published 2017).

Assays:
[1] = premarketing studies

O=C(O)c1ccc(-n2nc(-c3ccccc3O)nc2-c2ccccc2O)cc1 [Deferasirox, 4-[3,5-bis (2-hydroxyphenyl)-[1,2, 4]triazol-1-yl] enzoic acid]
Lipid solubility: highly lipid-soluble | Water solubility: highly water insoluble | Solubility in lower pH (lower pH): practically insoluble | Solubility at pH 6.8 (pH 6.8, until buffer strength is altered): insoluble | Elevations in liver transaminases, fraction of patients [1]: ⅓
